Where two headings read alike, the source gives them in different places.
Key:
Toxicology studies, LD50 = conditions: in vivo
From the text: (§1) Toxicology studies on the compound of Example 1 have indicated the compound to be quite safe. […] No special handling procedures beyond normal precautions are deemed necessary.

[1] = test system: annual grasses, annual broadleafs and perennials; assay: Other tests, preemergence selective control or suppression of weeds; assay type: in vivo
[2] = Toxicology studies, eye irritation; conditions: in vivo
From the text: as §1

Morningglory = assay: Field tests, selectivity; assay type: in vivo; conditions: in corn
From the text: (§2) In the discussion and tables of data below, reference is made to herbicide application rates symbolized as "GR15 " and "GR85 "; these rates are given in kilograms per hectare (kg/ha) which are convertible into pounds per acre (lbs/A) by dividing the kg/ha rate by 1.12.
(§3) A further guide to the effectiveness of a chemical as a selective herbicide is the "selectivity factor" ("SF") for a herbicide in given crops and weeds. The selectivity factor is a measure of the relative degree of crop safety and weed injury and is expressed in terms of the GR15 /GR85 ratio, i.e., the GR15 rate for the crop divided by the GR85 rate for the weed, both rates in kg/ha (lb/A). In the tables below, selectivity factors are shown in parenthesis following the GR85 rate for each weed; the symbol "NS" indicates "non-selective". Marginal or undetermined selectivity is indicated by a dash (--).
(§4) It will be understood by those skilled in the art that not all of the named weeds are selectively controlled in all of the named crops under all conditions of climate, soil, moisture and/or herbicide application modes. Selectivity data for control of the foregoing weeds in the crops soybeans, corn, cotton and peanuts from a plurality of field tests in various locations under various conditions of soil, moisture, etc., is shown collectively in Tables VIII-XI, respectively.

soybeans = assay: Field tests, selectivity; assay type: in vivo
From the text: as §2, §3, §4

With `CCOCN(C(=O)CCl)c1c(C)cccc1C(F)(F)F` [Example 1, N-(ethoxymethyl)-2'-trifluoromethyl-6'-methyl-2-chloroacetanilide] the toxicity (Toxicology studies, LD50) was “slightly toxic”, the LD50 (Toxicology studies, LD50; po, read-out: OLD50) was 2300 mg/kg and the LD50 (Toxicology studies, LD50; read-out: MLD50) was over 5010 mg/kg. For the same compound, the “preemergence selective control or suppression of weeds” value ([1]; in soybeans, corn, cotton, peanuts, beans, potatoes, tree fruits, turf grasses) was “effectiveness for premergence selective control or suppression”, the “competition from seedling johnsongrass, Texas panicum, sandbur, shattercane, Florida beggarweed, lambsquarters, ragweed, prickley sida and smartweed” value ([1]; in vivo) was “reduces competition” and the eye irritation [2] was “slight eye irritation”. For the same compound, the GR85 (Morningglory; P.P.I., 3 WAT) was over 4.5 kg/ha, the GR85 (Morningglory; P.P.I., 6 WAT) was over 4.5 kg/ha and the GR85 (Morningglory; S.A., 3 WAT) was over 4.5 kg/ha. For the same compound, the GR85 (Morningglory; S.A., 6 WAT) was over 4.5 kg/ha, the suppression (Morningglory; Table IX) was “suppression of these weeds was exhibited” and the GR15 (soybeans; Soybeans/Giant foxtail, P.P.I., 3 WAT) was over 4.5 kg/ha. It also gave a GR15 (soybeans; Soybeans/Giant foxtail, P.P.I., 5 WAT) of over 4.5 kg/ha, a GR15 (soybeans; Soybeans/Giant foxtail, S.A., 3 WAT) of over 4.5 kg/ha and a GR15 (soybeans; Soybeans/Lambsquarters, P.P.I., 6 WAT) of 1.4 kg/ha. The GR15 (soybeans; Soybeans/Lambsquarters, S.A., 6 WAT) was 2.5 kg/ha, the GR15 (soybeans; Soybeans/Pennsylvania Smartweed, P.P.I., 8 WAT) was 4.5 kg/ha and the GR15 (soybeans; Soybeans/Yellow foxtail, P.P.I., 6 WAT) was 1.4 kg/ha. It also gave a GR15 (soybeans; Soybeans/Yellow foxtail, S.A., 6 WAT) of 2.5 kg/ha.
